Laboratory results reported in patent US11793827B2, “Adenosine derivative and pharmaceutical composition comprising the same” (Brii Biosciences, Inc., priority 2021, dated 2023).

How the values were obtained:
[1] = Plasma stability (human plasma); details: for Formation of EFdA at 30 min: human plasma; for half-life at 2 µM: human, pH 7.4
Protocol: The pooled frozen plasma was thawed in a water bath at 37° C. prior to experiment. Plasma was centrifuged at 4000 rpm for 5 min and the clots were removed if any. The pH will be adjusted to 7.4±0.1 if required.
Preparation of test compounds and positive control (propantheline bromide): 1 mM intermediate solution was prepared by diluting 10 μL of the stock solution with 90 μL MeOH; 1 mM intermediate of positive control Propantheline was prepared by diluting 10 μL of the stock solution with 90 μL ultrapure water. 100 μM dosing solution was prepared by diluting 20 μL of the intermediate solution (1 mM) with 180 μL MeOH. 98 μL of blank plasma was spiked with 2 μL of dosing solution (100 μM) to achieve 2 μM of the final concentration in duplicate and samples were incubated at 37° C. in a water bath. […] Centrifuged sample plates at 4,000 rpm for 10 min. An aliquot of supernatant (100 μL) was transferred from each well to another plates.

[2] = Liver S9 stability (human liver S9); format: in vitro ADME; details: for half-life at 1 µM: human liver S9, 37° C.; for Formation of EFdA at 30 min: human liver S9, 30 min
Protocol: Add 600 μL/well stop solution (cold in 4° C., including 100 ng/mL Tolbutamide/100 ng/mL Labetalol) to terminate the TO plate, then put it on ice. Dispense 840 μL/well S9 solution to 96-well plate as reservoir according to plate map. Then add 100 μL/well to every plate by Apricot. Incubate S9 solution and compound at 37° C. for about 10 min except NCF60 and TO. After adding S9 solution and 98μ LPB buffer to NCF60, incubate at 37° C. without pre-warming, start timer 1. After 60 min, add 600 μL/well stop solution to terminate the reaction. After pre-warming, dispense 760 μL/well cofactor solution to 96-well plate as reservoir according to plate map. Then add 98 μL/well to every plate by Apricot to start reaction. Incubate at 37° C., start timer 2, Add 600 μL/well stop solution (cold in 4° C., including 100 ng/mL Tolbutamide and Labetalol) to terminate the reaction. Samples are centrifuged at 4000 rpm for 20 min. While centrifuging, load 8× new 96-well plate with 300 μL HPLC water, then transfer 100 μL supernatant, mix with water for LC/MS/MS, transferred to Bioanalytical Services for LC-MS/MS analysis. Use equation of first order kinetics [NT]1/2 and CL: Equation of first order kinetics: [formula] [formula] [formula] [formula]

[3] = Plasma exposures following intramuscular administration of prodrugs to cynomolgus monkeys; details: single IM injection, 10 mg/kg

Row | Formation of EFdA at 30 min [1] | half-life at 2 µM ([1]; pooled plasma) [min] | half-life at 1 µM [2] [min] | Formation of EFdA at 30 min [2] | Structure (SMILES) | Release of EFdA in vivo and prodrug level in the systemic circulation [3] | half-life at 2 µM ([1]; plasma) [min]
1 | Yes | < 50 | < 50 | Yes | C#C[C@]1(COC(=O)OCCC23CC4CC(CC(C4)C2)C3)O[C@@H](n2cnc3c(N)nc(F)nc32)C[C@@H]1O [Compound 7, ((2R, 3S, 5R)-5-(6-amino-2-fluoro-9H-purin-9-yl)-2-ethynyl-3-hydroxy-tetrahydrofuran-2-yl)methyl 2-(1-adamantyl)ethyl carbonate] | efficiently release EFdA in vivo with minimal to low levels of prodrug detected in the systemic circulation | 
2 | Yes | < 50 | < 50 | Yes | C#C[C@]1(COC(=O)OCCCC23CC4CC(CC(C4)C2)C3)O[C@@H](n2cnc3c(N)nc(F)nc32)C[C@@H]1O [Compound 10, ((2R,3S,5R)-5-(6-amino-2-fluoro-9H-purin-9-yl)-2-ethynyl-3-hydroxy-tetrahydrofuran-2-yl)methyl 3-(1-adamantyl)propyl carbonate] | efficiently release EFdA in vivo with minimal to low levels of prodrug detected in the systemic circulation | 
3 | Yes | < 50 | < 50 | Yes | C#C[C@]1(COC(=O)OCCCCC23CC4CC(CC(C4)C2)C3)O[C@@H](n2cnc3c(N)nc(F)nc32)C[C@@H]1O [Compound 12, ((2R,3S,5R)-5-(6-amino-2-fluoro-9H-purin-9-yl)-2-ethynyl-3-hydroxy-tetrahydrofuran-2-yl)methyl 4-(1-adamantyl)butyl carbonate] | efficiently release EFdA in vivo with minimal to low levels of prodrug detected in the systemic circulation | 
4 | No | > 200 | 50 to 200 | Yes | C#C[C@]1(COC(=O)OCCCC23CC4CC(CC(C4)C2)C3)O[C@@H](n2cnc3c(N)nc(F)nc32)C[C@@H]1OC(=O)OCCCC12CC3CC(CC(C3)C1)C2 [Compound 22, ((2R,3S,5R)-3-[3-(1-adamantyl)propoxycarbonyloxy]-5-(6-amino-2-fluoro-9H-purin-9-yl)-2-ethynyl-tetrahydrofuran-2-yl)methyl 3-(1-adamantyl)propyl carbonate] |  | 
5 | No | > 200 | < 50 | Yes | C#C[C@]1(COC(=O)OCC23CC4CC(CC(C4)C2)C3)O[C@@H](n2cnc3c(N)nc(F)nc32)C[C@@H]1OC(=O)OCC12CC3CC(CC(C3)C1)C2 [Compound 23, ((2R,3S,5R)-3-(1-adamantylmethoxycarbonyloxy)-5-(6-amino-2-fluoro-9H-purin-9-yl)-2-ethynyl-tetrahydrofuran-2-yl)methyl 1-adamantylmethyl carbonate] |  | 
6 | No | > 200 | < 50 | Yes | C#C[C@]1(COC(=O)OC23CC4CC(CC(C4)C2)C3)O[C@@H](n2cnc3c(N)nc(F)nc32)C[C@@H]1OC(=O)C(C)C [Compound 28, ((2R,3S,5R)-2-(1-adamantyloxycarbonyloxymethyl)-5-(6-amino-2-fluoro-9H-purin-9-yl)-2-ethynyl-tetrahydrofuran-3-yl) 2-methylpropanoate] |  | 

Row | Structure (SMILES) | Formation of EFdA at 30 min [1] | half-life at 2 µM ([1]; pooled plasma) [min] | half-life at 1 µM [2] [min] | Formation of EFdA at 30 min [2] | Release of EFdA in vivo and prodrug level in the systemic circulation [3] | half-life at 2 µM ([1]; plasma) [min]
7 | C#C[C@]1(COC(=O)OCC23CC4CC(CC(C4)C2)C3)O[C@@H](n2cnc3c(N)nc(F)nc32)C[C@@H]1OC(=O)OCC [Compound 24, ((2R,3S,5R)-2-(1-adamantylmethoxycarbonyloxymethyl)-5-(6-amino-2-fluoro-9H-purin-9-yl)-2-ethynyl-tetrahydrofuran-3-yl) ethyl carbonate] | Yes |  | < 50 | Yes |  | 50 to 200
8 | C#C[C@]1(COC(=O)OCCCCC23CC4CC(CC(C4)C2)C3)O[C@@H](n2cnc3c(N)nc(F)nc32)C[C@@H]1OC(=O)OCC [Compound 25, ((2R,3S,5R)-2-[4-(1-adamantyl)butoxycarbonyloxymethyl]-5-(6-amino-2-fluoro-9H-purin-9-yl)-2-ethynyl-tetrahydrofuran-3-yl) ethyl carbonate] | Yes |  | < 50 | Yes |  | 50 to 200
9 | C#C[C@]1(COC(=O)OCCCC23CC4CC(CC(C4)C2)C3)O[C@@H](n2cnc3c(N)nc(F)nc32)C[C@@H]1OC(=O)OCC [Compound 26, ((2R,3S,5R)-2-[3-(1-adamantyl)propoxycarbonyloxymethyl]-5-(6-amino-2-fluoro-9H-purin-9-yl)-2-ethynyl-tetrahydrofuran-3-yl) ethyl carbonate] | Yes |  | < 50 | Yes |  | < 50
10 | C#C[C@]1(COC(=O)OC23CC4CC(CC(C4)C2)C3)O[C@@H](n2cnc3c(N)nc(F)nc32)C[C@@H]1OC(=O)OCC [Compound 27, 1-adamantyl ((2R,3S,5R)-5-(6-amino-2-fluoro-purin-9-yl)-3-ethoxycarbonyloxy-2-ethynyl-tetrahydrofuran-2-yl)methyl carbonate] | No |  | < 50 | Yes |  | > 200
